Tests used:
[1] = Stability after dilution of prepared freeze-dried powder in physiological saline; format: physicochemical; settings: 16% HP-beta-cyclodextrin solution, 60 °C, aqueous with cosolvent or surfactant or cyclodextrin, thermodynamic from solid; in 16% HP-beta-cyclodextrin; read-out: highest solubility
Protocol: Hydroxypropyl beta-cyclodextrin (HP-beta-cyclodextrin) was dissolved in distilled water for injection under stirring at room temperature and heated to 60° C., and the compound of formula 1 was added thereto, stirred and enclosed therein. The liquid injection was sterilized and filtered through 0.22 μm filter paper. The filtered injection solution was filled into a glass vial, cooled at −80° C., and freeze-dried to commercialize.

[2] = system: Staphylococcus aureus 13B-382 (MRSA, clinical strain); test: Susceptibility test (MIC), clinical strain; format: cell-based; settings: Staphylococcus aureus 13B-382, read-out: MIC
Protocol: For the compound of formula 1, pharmacokinetic/pharmacodynamic experiments were conducted using a mouse infection model. To this end, experiments were conducted with Staphylococcus aureus ATCC 29213 (MSSA, standard strain) and 13B-382 (MRSA, clinical strain). As a medium, Mueller-Hinton broth or Cation-adjusted Mueller-Hinton broth was used. For the susceptibility test (minimum inhibitory concentration (MIC)), the compound of formula 1 was used.

## Cc1c(N)cccc1Cn1ccc(OCCc2cccs2)cc1=O [Compound of formula 1, 1-(3-amino-2-methylbenzyl)-4-(2-thiophen-2-yl-ethoxy)-1H-pyridin-2-one]
[1]
  Solubility: 3000 µg/mL
[2]
  MIC: 0.25 µg/mL

From US20220031607A1, “INJECTION COMPOSITION CONTAINING FAB I INHIBITOR, AND PREPARATION METHOD THEREFOR” (CRYSTALGENOMICS, INC., priority 2019, published 2022)
